In patent US20120177681A1, “Formulation of immunopotentiators” (priority 2010, published 2012):

Experiments:
[1] = Model of in vivo desorption from Al—H; type: in vitro ADME; details: 37° C.
[2] = Solubility in histidine buffer at pH 6.8; type: physicochemical
[3] = Desorption from Al—H by phosphate / buffer anions; type: physicochemical; details: KH2PO4 0.5M final, pH 9, overnight at 37° C.
[4] = Adsorption to aluminium hydroxide (Al—H), HPLC of supernatant; type: physicochemical; details: parent compound, in words
[5] = Confocal microscopy / flow cytometry of association with Al—H; type: physicochemical; details: in the presence of Al—H

Cc1ccc2c(c1)nc(N)c1ncc(CCc3ccc(OCCCP(=O)(O)O)cc3C)cc12 [Compound 13]
proportion desorbed after 5 hours ([1]; His buff): 2% | proportion desorbed after 5 hours ([1]; Plasma/His buff): 9% | proportion desorbed after 5 hours ([1]; SIF (simulated interstitial fluid)): 4% | solubility in histidine buffer [2]: poorly soluble | compound in supernatant after KH2PO4 treatment (displacement / desorption) [3]: Increased quantities

Cc1ccc(CCc2cnc3c(N)nc4cc(C)ccc4c3c2)c(C)c1 [compound O]
adsorption to the Al—H adjuvant [4]: fails to adsorb | co-localisation with Al—H (flow cytometry) [5]: separate population
